In patent publication US7408039B2, “Kits for treatment of hematologic disorders” (The General Hospital Corporation, priority 1997, dated 2008):

What was measured:
[1] = tested on: refractory non-Hodgkin's lymphoma; details: five patients; Cy 50 mg/kg daily x4
Source text: Median patient age was 30 (range 20-45) years. All patients had disease progression during salvage chemotherapy or radiation therapy.

[2] = cited from earlier work

O=P1(N(CCCl)CCCl)NCCCO1 (centres unmarked) [cyclophosphamide]
patients with reversible Cy cardiotoxicity [1]: 1 n
post-chemotherapy hematopoietic recovery ([2]; 200 mg/kg, expected, following drug administration): approximately 2 weeks
patients developing diffuse maculopapular rash ([2]; 24-72 hours following cyclophosphamide): 10-20%
patients with some hematuria ([2]; at this dose level (50 mg/kg x 4)): Approximately 50%
incidence of hemorrhagic cystitis ([2]; cyclophosphamide 50 mg/kg on days -6 to -3): 20%
myeloablation ([2]; dose of 200 mg/kg): not myeloablative
time for rash to resolve ([2]; in vivo): 24 to 48 h
total dose at which fatal cardiac failure due to hemorrhagic necrosis can occur ([2]; total dose (7.6 grams/m^2)): ≥ 200 mg/kg
